One data set deals with p16-3MR mice. Nature of the data set: Senescence induced by chemotherapeutic drugs in p16-3MR mice (luminescence, skin mRNA). Type of data set: in vivo, mouse. To be noted: for level of senescent cells (luminescence): p<0.05. As to the method:
Paclitaxel induces senescence and SASP in p16-3MR transgenic mice. Groups of mice (n=4) were treated three times every two days with 20 mg/kg paclitaxel or vehicle. […] The level of mRNA in skin was determined for each of the target genes: p16, 3MR transgene, and IL-6.
To examine senescence induced by different chemotherapeutic drugs, groups of p16-3MR animals (n=4) were treated with thalidomide (100 mg/kg; 7 daily injections); romidepsin (1 mg/kg; 3 injections); pomalidomide (5 mg/kg; 7 daily injections); lenalidomide (50 mg/kg; 7 daily injections); 5-azacytidine (5 mg/kg; 3 injections) and compared with doxorubicin (10 mg/kg, 2-4 injections over 7 days).

For another data set, the system named is Senescent cells (SnC). Nature of the data set: Cell survival EC50 of MDM2 inhibitors, senescent cells. To be noted: for EC50: read-out: Cell survival data EC50 SnC.
The subject of data set [1] is quiescent high density non senescent cells (HD NsC). Nature of the data set: Cell survival EC50 of MDM2 inhibitors, quiescent high density non senescent cells. To be noted: read-out: Cell survival data EC50 HD NsC.
Data set [2] has as its system non-senescent IMR90 cells. Nature of the data set: CellTiter-Glo cell viability assay, non-senescent IMR90. It counts as cell-based. The conditions noted are these: Homo sapiens, IMR-90, 72 h, IMR90, 3 days. As for the experimental part: (§1) To determine whether ABT-263 is selectively toxic to senescent cells compared to non-senescent cells, a cell viability assay was used to assess cell survival following treatment with ABT-263. IMR90 cells (human primary lung fibroblasts (IMR90) (IMR-90 (ATCC® CCL-186™, Mannassas, Va.) were seeded in six well plates, and cells were induced to senescence with 10 Gy of ionizing radiation (IR) (Day 0). The media was refreshed every 3 days. The senescent phenotype is allowed to develop for 7 days at which point a cell count was made to determine the baseline number of cells followed by seeding into 96-well plates. On day 8, the senescent cells (irradiated) and the non-senescent cells (the non-radiated cells), were exposed to serial dilutions of ABT-263 for a period of 3 days. ABT-263 concentrations ranged from 0.5 nM to 3 μM. Each condition was seeded in triplicate.
(§2) After three days of treatment (Day 11), cells were assayed for cell survival using the commercially available CellTiter-Glo® (CTG) Luminescent Cell Viability Assay (Promega Corporation, Madison, Wis.). The assay determines the number of viable cells in culture based on the quantitation of ATP present which is an indicator of metabolically active cells.
(§3) The experiments performed for assessing the effect of these other Bcl-2 inhibitors were performed essentially as described in Example 7. Cells were exposed to ABT-199 at serial dilution concentrations ranging from 15 nM to 100 μM (FIGS. 26 and 27). Cells were exposed to Obatoclax at concentrations ranging from 1.4 nM to 9 μM (FIG. 28).
(§4) The effect of ABT-263 in combination with the Akt inhibitor MK-2206 was tested for selective toxicity of senescent cells compared to non-senescent cells in IMR90 cells. The methods of Example 7 were repeated except that cell cultures were exposed to 10 nM MK-2206 (Selleckem, Cat# S1078) in addition to serial dilutions of ABT-263.
Background: Cellular ATP, detected with luciferase, serves as a proxy for viable cell number.

Data set [3] concerns senescent (irradiated) IMR90 cells. The data set is described as follows: CellTiter-Glo cell viability assay, senescent IMR90. Type of data set: cell-based, human. As to the method: as §1, §2, §3, §4

“Also recorded” adds a separate entry of the source. Read-outs that look alike come from different tables or passages of the source.

Consider `COc1cccc2c1C(=O)c1c(O)c3c(c(O)c1C2=O)C[C@@](O)(C(=O)CO)C[C@@H]3O[C@H]1C[C@H](N)[C@H](O)[C@H](C)O1` [doxorubicin], for which the “level of senescent cells (luminescence)” value in the data set on p16-3MR mice is “significant levels of senescent cells”.
`CC(=O)O[C@H]1C(=O)[C@@]2(C)[C@H]([C@H](OC(=O)c3ccccc3)[C@]3(O)C[C@H](OC(=O)[C@H](O)[C@@H](NC(=O)c4ccccc4)c4ccccc4)C(C)=C1C3(C)C)[C@]1(OC(C)=O)CO[C@@H]1C[C@@H]2O` [paclitaxel]: the “senescence shown by luminescence” value with p16-3MR mice (20 mg/kg three times every two days) is recorded as “Senescence was observed”. Also, the “levels of mRNA for p16, 3MR and IL-6 in skin” value with p16-3MR mice (20 mg/kg three times every two days, versus vehicle) is given as “increased”.
On to `Nc1cccc2c1C(=O)N(C1CCC(=O)NC1=O)C2=O` (centres unmarked) [omalidomide], for which, in the data set on p16-3MR mice, the “level of senescent cells (luminescence)” value is given as “significant levels of senescent cells”.
Consider `Nc1cccc2c1CN(C1CCC(=O)NC1=O)C2=O` (centres unmarked) [lenalidomide], for which, in the data set with p16-3MR mice, the “level of senescent cells (luminescence)” value is reported as “significant levels of senescent cells”.
Broadly, the EC50 is the concentration needed to bring the measured effect to its halfway point. Consider `OCc1ccc(-c2ccc(-c3ccc(CO)s3)o2)s1` [RITA, 5,5′-(2,5-Furandiyl)bis-2-thiophenemethanol], for which, in the data set with Senescent cells (SnC), the “EC50 dose ratio HD NsC/SnC” value is recorded as 0.9 and the EC50 was determined as 254 µM. The EC50 in data set [1] was found to be 223 µM.
On to `CC(C)[C@@H](CS(=O)(=O)C(C)C)N1C(=O)[C@@](C)(CC(=O)O)C[C@H](c2cccc(Cl)c2)[C@H]1c1ccc(Cl)cc1` [AMG-232, 2-((3R,5R,6S)-5-(3-chlorophenyl)-6-(4-chlorophenyl)-1-((S)-1-(isopropylsulfonyl)-3-methylbutan-2-yl)-3-methyl-2-oxopiperidin-3-yl)acetic acid], for which, in the data set with Senescent cells (SnC), the “EC50 dose ratio HD NsC/SnC” value was 1.2 and the EC50 was 3.4 µM. The 50% effective concentration (EC50) in data set [1] is 4.1 µM.
With `O=C1c2c(c(-c3ccccc3)nn2Cc2ccc(F)cc2)C(c2ccc(Br)cc2)N1CCCn1ccnc1` (centres unmarked) [CAY10682, 4-(4-bromophenyl)-1-[(4-fluorophenyl)methyl]-4,5-dihydro-5-[3-(1H-imidazol-1-yl)propyl]-3-phenyl-pyrrolo[3,4-c]pyrazol-6(1H)-one], in the data set with Senescent cells (SnC), the “EC50 dose ratio HD NsC/SnC” value was 1.3 and the concentration for a half-maximal effect (EC50) stood at 11.2 µM. For the same compound, in data set [1], the EC50 is 14.3 µM.
Turning to `CCCCn1c(=O)[nH]c(O)c(C2NCCc3c2[nH]c2ccccc32)c1=O` (centres unmarked) [MEL23, 3-Butyl-6-hydroxy-5-(2,3,4,9-tetrahydro-1H-pyrido[3,4-b]indol-1-yl)pyrimidine-2,4(1H,3H)-dione], in the data set on Senescent cells (SnC), the “EC50 dose ratio HD NsC/SnC” value is 5.2 and the EC50 was found to be 4 µM. The “selectivity for senescent cells over quiescent cells” value (“selectivity for senescent cells” for short) in the data set on Senescent cells (SnC) (listed as Me123) was “high specificity; also recorded: particularly high selectivity”. Further, the EC50 in data set [1] was 20.9 µM.
A word on the IC50: it is the midpoint of a concentration-inhibition curve. Turning to `COC1=CC(c2cc3ccccc3[nH]2)=N/C1=C\c1[nH]c(C)cc1C` [Obatoclax], the concentration for half-maximal inhibition (IC50) in data set [2] (read-out: IC50 in non-senescent cells) is 0.075 µM.
Take `c1ccc2c(CCNc3ccc(Nc4ccncc4)cc3)c[nH]c2c1` [JNJ 26854165, N1-(2-(1H-indol-3-yl)ethyl)-N4-(pyridin-4-yl)benzene-1,4-diamine]: in the data set on Senescent cells (SnC), the “EC50 dose ratio HD NsC/SnC” value was determined as 6.5, the “selectivity for senescent cells” value is on record as “high specificity; also recorded: particularly high selectivity” and the half-maximal effective concentration (EC50) stood at 1 µM. Further, in data set [1], the EC50 came to 6.6 µM.
On to `COc1cc(C(=O)O)ccc1NC(=O)[C@@H]1N[C@@H](CC(C)(C)C)[C@](C#N)(c2ccc(Cl)cc2F)[C@H]1c1cccc(Cl)c1F` [RG7388, 4-[[(2R,3S,4R,5S)-3-(3-chloro-2-fluorophenyl)-4-(4-chloro-2-fluorophenyl)-4-cyano-5-(2,2-dimethylpropyl)pyrrolidine-2-carbonyl]amino]-3-methoxybenzoic acid], for which, in the data set on Senescent cells (SnC), the “EC50 dose ratio HD NsC/SnC” value is 1.0 and the concentration giving a half-maximal response (EC50) stood at 32.8 µM. Further, the concentration giving a half-maximal response (EC50) in data set [1] came to 31.5 µM.
As for `O=C(/C=C/c1ccc(I)cc1)c1ccc(B(O)O)cc1` [Boronate, trans-4-Iodo, 4′-boranyl-chalcone], in the data set on Senescent cells (SnC), the “EC50 dose ratio HD NsC/SnC” value is listed as 14.1, the “selectivity for senescent cells” value is on record as “particularly high selectivity” and the EC50 turned out to be 10.8 µM. In addition, in the data set with Senescent cells (SnC) (listed as boronate), the “selectivity for senescent cells” value is listed as “high specificity”. For the same compound, in data set [1], the EC50 came to 153 µM.
Turning to `O=C1c2c(c(-c3ccccc3)nn2Cc2ccccc2)C(c2ccc(Br)cc2)N1CCCn1ccnc1` (centres unmarked) [CAY10681, 4-(4-bromophenyl)-4,5-dihydro-5-[3-(1H-imidazol-1-yl)propyl]-3-phenyl-1-(phenylmethyl)-pyrrolo[3,4-c]pyrazol-6(1H)-one], in the data set on Senescent cells (SnC), the “EC50 dose ratio HD NsC/SnC” value stood at 1.6 and the half-maximal effective concentration (EC50) came to 11 µM. Also, the EC50 in data set [1] came out at 17.6 µM.
As to `Cn1c(=O)c([N+](=O)[O-])c(Cl)c2ccccc21` [ML214], in data set [3] (irradiated and non-senescent IMR90), the “level of killing of senescent cells versus non-senescent cells” value is given as “comparable to the level of killing of non-senescent cells”.
On to `CC1(C)CCC(CN2CCN(c3ccc(C(=O)NS(=O)(=O)c4ccc(NCC5CCOCC5)c([N+](=O)[O-])c4)c(Oc4cnc5[nH]ccc5c4)c3)CC2)=C(c2ccc(Cl)cc2)C1` [ABT-199, 4-[4-[[2-(4-Chlorophenyl)-4,4-dimethylcyclohex-1-en-1-yl]methyl]piperazin-1-yl]-N-[[3-nitro-4-[[(tetrahydro-2H-pyran-4-yl)methyl]amino]phenyl]sulfonyl]-2-[(1H-pyrrolo[2,3-b]pyridin-5-yl)oxy]benzamide], for which the IC50 in data set [3] (Homo sapiens, IMR-90, 72 h, IMR90, 3 days, read-out: IC50 in senescent cells) fell in the range of 6.9 to 12.4 µM; in data set [2] (CellTiter-Glo, read-out: IC50 on non-senescent cells) it was 6 to 15.8 µM. Also, in data set [3] (IMR90), the “selective targeting of senescent cells over non-senescent cells” value is “inability”.

These data come from patent US20190022225A1, “PROTOCOL FOR INCREASING LIFE EXPECTANCY IN A TEST SUBJECT” (Mayo Foundation for Medical Education and Research, priority 2015, published 2019).
